Holding throughout (format): in vivo
One test concerns Stellaria media. The test can be described thus: Pre-emergence test. To be noted: 3 weeks after treatment. The protocol: (§1) To evaluate their herbicidal activity, compounds according to the invention are tested using a representative range of plants: STEME Stellaria media The pre-emergence tests involve spraying a liquid formulation of the compound onto the soil in which the seeds of the plant species mentioned above has recently been sown. The soil used in the tests is a prepared horticultural loam. The formulations used in the tests are prepared from solutions of the test compounds in acetone containing 0.4% by weight of an alkylphenol/ethylene oxide condensate available under the trade mark TRITON X-155. These acetone solutions are diluted with water and the resulting formulations applied at dosage levels corresponding to 0.025 kg, 0.100 kg or 0.400 kg of active material per hectare in a volume equivalent to 900 litres per hectare. In these tests untreated sown soil are used as controls. From 2 to 4 weeks after treatment, the tests are terminated and each pot is examined and rated according to the rating system set forth below: [table]

The next test relates to Galium aparine. Description: Post-emergence test. To be noted: 2-4 weeks after treatment. The protocol: (§2) To evaluate their herbicidal activity, compounds according to the invention are tested using a representative range of plants: GALAP Galium aparine [table] […] These acetone solutions are diluted with water and the resulting formulations applied at dosage levels equivalent of about 0.1 to 0. 4 kg per hectare of test compound per pot. After spraying the plants are placed on greenhouse benches and are cared for in the usual manner, commensurate with conventional greenhouse practices. From 2 to 4 weeks after treatment, the seedling plants are examined and rated according to the rating system provided above.

A further test concerns Zea mays. Description: Pre-emergence test. The note with it: 3 weeks after treatment. The protocol:
as §1, with “ZEAMX Zea mays” for “STEME Stellaria media”

A further test has as its system Hordeum vulgare. Description: Post-emergence test. The note with it: 2-4 weeks after treatment. The protocol:
as §2, with “HORVW Hordeum vulgare” for “GALAP Galium aparine”

The subject of the next test is Glycine max. Description: Pre-emergence test. To be noted: 3 weeks after treatment. The protocol:
To evaluate their herbicidal activity, compounds according to the invention are tested using a representative range of plants:
The pre-emergence tests involve spraying a liquid formulation of the compound onto the soil in which the seeds of the plant species mentioned above has recently been sown.
as §1, with “The” for “To evaluate their herbicidal activity, compounds according to the invention are tested using a representative range of plants: STEME Stellaria media The pre-emergence tests involve spraying a liquid formulation of the compound onto the soil in which the seeds of the plant species mentioned above has recently been sown. The”, “[table]” left out

The subject of a further test is Matricaria inodora. The test can be described thus: Post-emergence test. The note with it: 2-4 weeks after treatment. How it is done: as §2, with “MATIN Matricaria inodora” for “GALAP Galium aparine”
A further test has as its system Echinochloa crus-galli. The test can be described thus: Pre-emergence test. To be noted: 3 weeks after treatment. The protocol:
as §1, with “ECHCG Echinochloa crus-galli” for “STEME Stellaria media”

The next test concerns Alopecurus myosuroides. The test can be described thus: Pre-emergence test. The note with it: 3 weeks after treatment. How it is done: as §1, with “ALOMY Alopecurus myosuroides” for “STEME Stellaria media”

For `Cn1nc(C(F)(F)F)cc1Oc1cc(C#N)cc(-c2cc(C(F)(F)F)nn2C)n1` [Example 3, 4-Cyano-2-(1-methyl-3-trifluoromethylpyrazol-5-yloxy)-6-(1-methyl-3-trifluoromethylpyrazol-5-yl)pyridine], the results for the STEME herbicidal rating with Stellaria media (0.025 kg/ha), with Stellaria media (0.100 kg/ha) and in the test on Stellaria media (0.400 kg/ha) were 8 (8 - Approaching complete kill), 9 (9 - Complete kill) and 9 (9 - Complete kill), respectively. The GALAP herbicidal rating with Galium aparine (0.1 kg/ha) was 3 (3 - Moderate effect); with Galium aparine (0.4 kg/ha), 9 (9 - Complete kill). The ZEAMX herbicidal rating with Zea mays (0.025 kg/ha) is 3 (3 - Moderate effect); with Zea mays (0.100 kg/ha), 3 (3 - Moderate effect); in the test on Zea mays (0.400 kg/ha) it was 5 (5 - Definite injury). In addition, the results for the HORVW herbicidal rating in the test with Hordeum vulgare (0.1 kg/ha) and in the test on Hordeum vulgare (0.4 kg/ha) were 3 (3 - Moderate effect) and 5 (5 - Definite injury), respectively. Also, the values for the GLXMA herbicidal rating in the test with Glycine max (0.025 kg/ha), with Glycine max (0.100 kg/ha) and with Glycine max (0.400 kg/ha) were 0 (0 - No effect), 1 (1 - Trace effect) and 3 (3 - Moderate effect), respectively. Further, the MATIN herbicidal rating with Matricaria inodora (0.1 kg/ha) and in the test with Matricaria inodora (0.4 kg/ha) was 8 (8 - Approaching complete kill) in each case. For the same molecule, the ECHCG herbicidal rating in the test with Echinochloa crus-galli (0.025 kg/ha) is given as 2 (2 - Slight effect); in the test with Echinochloa crus-galli (0.100 kg/ha) it was 4 (4 - Injury); with Echinochloa crus-galli (0.400 kg/ha) it was 4 (4 - Injury). Moreover, the values for the ALOMY herbicidal rating in the test with Alopecurus myosuroides (0.025 kg/ha), in the test on Alopecurus myosuroides (0.100 kg/ha) and with Alopecurus myosuroides (0.400 kg/ha) were 2 (2 - Slight effect), 3 (3 - Moderate effect) and 5 (5 - Definite injury), respectively.

As for `Cc1cnc(-c2cc(C(F)(F)F)nn2C)nc1Oc1cc(C(F)(F)F)nn1C` [Example 4, 2-(1-Methyl-3-trifluoromethylpyrazol-5-yl)-6-(1-methyl-3-trifluoromethylpyrazol-5-yloxy)-5-methylpyrimidine], the STEME herbicidal rating in the test on Stellaria media (0.025 kg/ha), in the test with Stellaria media (0.100 kg/ha) and in the test on Stellaria media (0.400 kg/ha) was 9 (9 - Complete kill) throughout. The results for the GALAP herbicidal rating in the test with Galium aparine (0.1 kg/ha) and with Galium aparine (0.4 kg/ha) were 8 (8 - Approaching complete kill) and 9 (9 - Complete kill), respectively. In addition, the ZEAMX herbicidal rating in the test with Zea mays (0.025 kg/ha) is listed as 2 (2 - Slight effect); in the test with Zea mays (0.100 kg/ha) it was 2 (2 - Slight effect); in the test on Zea mays (0.400 kg/ha) it was 3 (3 - Moderate effect). For the same molecule, the HORVW herbicidal rating was 3 (3 - Moderate effect) with Hordeum vulgare (0.1 kg/ha) and 5 (5 - Definite injury) with Hordeum vulgare (0.4 kg/ha). In addition, the GLXMA herbicidal rating is given as 2 (2 - Slight effect) in the test on Glycine max (0.025 kg/ha), 3 (3 - Moderate effect) in the test with Glycine max (0.100 kg/ha) and 4 (4 - Injury) in the test with Glycine max (0.400 kg/ha). Also, the MATIN herbicidal rating in the test with Matricaria inodora (0.1 kg/ha) was 5 (5 - Definite injury); in the test on Matricaria inodora (0.4 kg/ha), 7 (7 - Good herbicidal effect). The ECHCG herbicidal rating was 4 (4 - Injury) in the test with Echinochloa crus-galli (0.025 kg/ha), 7 (7 - Good herbicidal effect) in the test with Echinochloa crus-galli (0.100 kg/ha) and 8 (8 - Approaching complete kill) in the test on Echinochloa crus-galli (0.400 kg/ha). Also, the ALOMY herbicidal rating in the test on Alopecurus myosuroides (0.025 kg/ha) is 2 (2 - Slight effect); in the test on Alopecurus myosuroides (0.100 kg/ha), 6 (6 - Herbicidal effect); in the test on Alopecurus myosuroides (0.400 kg/ha) it was 8 (8 - Approaching complete kill).

As for `Cc1cc(Oc2cccc(C(F)(F)F)c2)nc(-c2cc(C(F)(F)F)nn2C)c1` [Example 63], the STEME herbicidal rating in the test with Stellaria media (0.100 kg/ha) is 3 (3 - Moderate effect); in the test with Stellaria media (0.400 kg/ha), 9 (9 - Complete kill). Also, the GALAP herbicidal rating in the test on Galium aparine (0.1 kg/ha) and in the test with Galium aparine (0.4 kg/ha) was 5 (5 - Definite injury) each time. Besides, the ZEAMX herbicidal rating with Zea mays (0.025 kg/ha), in the test on Zea mays (0.100 kg/ha) and in the test on Zea mays (0.400 kg/ha) was 0 (0 - No effect) in each case. Further, the HORVW herbicidal rating with Hordeum vulgare (0.1 kg/ha) and in the test on Hordeum vulgare (0.4 kg/ha) was 3 (3 - Moderate effect) in each case. Also, the GLXMA herbicidal rating with Glycine max (0.025 kg/ha), in the test on Glycine max (0.100 kg/ha) and in the test on Glycine max (0.400 kg/ha) was 0 (0 - No effect) throughout. Also, the figures for the MATIN herbicidal rating in the test on Matricaria inodora (0.1 kg/ha) and in the test with Matricaria inodora (0.4 kg/ha) were 5 (5 - Definite injury) and 7 (7 - Good herbicidal effect), respectively. The ECHCG herbicidal rating is 0 (0 - No effect) in the test with Echinochloa crus-galli (0.025 kg/ha), 0 (0 - No effect) in the test with Echinochloa crus-galli (0.100 kg/ha) and 4 (4 - Injury) in the test with Echinochloa crus-galli (0.400 kg/ha). For the same molecule, the values for the ALOMY herbicidal rating in the test on Alopecurus myosuroides (0.025 kg/ha), with Alopecurus myosuroides (0.100 kg/ha) and in the test with Alopecurus myosuroides (0.400 kg/ha) were 0 (0 - No effect), 1 (1 - Trace effect) and 5 (5 - Definite injury), respectively.

(Values after patent US6528456B2, “Herbicidal 2-pyrazolyl-6-aryloxypyri(mi)dines” (BASF Aktiengesellschaft, priority 1999, dated 2003).)
